Test results taken from ChEMBL document CHEMBL5042487, “Design, synthesis, and biological activity evaluation of 2-(benzo[b]thiophen-2-yl)-4-phenyl-4,5-dihydrooxazole derivatives as broad-spectrum antifungal agents” (Eur J Med Chem, 2022).
≈ marks a conversion by molar mass, not a printed value.

Tests used:
Candida albicans [1] = experiment: Antifungal activity against Candida albicans SC5314 assessed as inhibition of fungal growth by NCCLS protocol based method; format: functional
Candida albicans [2] = experiment: Antifungal activity against Candida albicans GIM 2.194 assessed as inhibition of fungal growth by NCCLS protocol based method; format: functional
Candida tropicalis = experiment: Antifungal activity against Candida tropicalis GIM 2.183 assessed as inhibition of fungal growth by NCCLS protocol based method; format: functional
Cryptococcus neoformans = experiment: Antifungal activity against Cryptococcus neoformans GIM 2.209 assessed as inhibition of fungal growth by NCCLS protocol based method; format: functional
Aspergillus fumigatus = experiment: Antifungal activity against Aspergillus fumigatus CGMCC 3.7795 assessed as inhibition of fungal growth by NCCLS protocol based method; format: functional
Candida albicans [3] = experiment: Antifungal activity against fluconazole resistant Candida albicans CaR assessed as inhibition of fungal growth by NCCLS protocol based method; format: functional
Candida albicans [4] = experiment: Antifungal activity against fluconazole and itraconazole resistant Candida albicans 17# assessed as inhibition of fungal growth by NCCLS protocol based method; format: functional
[5] = Metabolic stability in human liver microsomes assessed as half life at 100 uM pre-incubated for 10 mins followed by NADPH-regenerating system and measured upto 60 mins by LC-MS/MS analysis; format: ADME, Microsome; conditions: time <=70 min
[6] = Metabolic stability in human liver microsomes assessed as microsomal intrinsic clearance at 100 uM pre-incubated for 10 mins followed by NADPH-regenerating system and measured upto 60 mins by LC-MS/MS analysis; format: ADME, Microsome; conditions: time <=70 min, read-out: CLH
[7] = Metabolic stability in human liver microsomes assessed as liver intrinsic clearance at 100 uM pre-incubated for 10 mins followed by NADPH-regenerating system and measured upto 60 mins by LC-MS/MS analysis; format: ADME, Microsome; conditions: time <=70 min, read-out: CLH
[8] = Metabolic stability in human liver microsomes assessed as parent compound remaining at 100 uM pre-incubated for 10 mins followed by NADPH-regenerating system and measured upto 60 mins by LC-MS/MS analysis; format: ADME, Microsome; conditions: time <=70 min, read-out: Stability
[9] = Metabolic stability in human liver microsomes assessed as parent compound remaining incubated upto 60 mins by LC-MS/MS analysis; format: ADME, Microsome; conditions: read-out: Stability
[10] = Stability in human plasma assessed as compound remaining incubated for 60 mins by LC-MS/MS analysis; format: ADME, cell-free; conditions: read-out: Stability
[11] = Stability in human plasma assessed as compound remaining incubated for 120 mins by LC-MS/MS analysis; format: ADME, cell-free; conditions: 2 h
[12] = Stability in human plasma assessed as half life incubated for 60 mins by LC-MS/MS analysis; format: ADME, cell-free
Cytochrome P450 1A2 = biological target: T1, Cytochrome P450 1A2 (Homo sapiens, UniProt P05177); experiment: Inhibition of CYP1A2 in human liver microsomes incubated for 10 mins in presence of NADPH by LC/MS/MS analysis; format: ADME
T1 sequence (P05177 whole entry): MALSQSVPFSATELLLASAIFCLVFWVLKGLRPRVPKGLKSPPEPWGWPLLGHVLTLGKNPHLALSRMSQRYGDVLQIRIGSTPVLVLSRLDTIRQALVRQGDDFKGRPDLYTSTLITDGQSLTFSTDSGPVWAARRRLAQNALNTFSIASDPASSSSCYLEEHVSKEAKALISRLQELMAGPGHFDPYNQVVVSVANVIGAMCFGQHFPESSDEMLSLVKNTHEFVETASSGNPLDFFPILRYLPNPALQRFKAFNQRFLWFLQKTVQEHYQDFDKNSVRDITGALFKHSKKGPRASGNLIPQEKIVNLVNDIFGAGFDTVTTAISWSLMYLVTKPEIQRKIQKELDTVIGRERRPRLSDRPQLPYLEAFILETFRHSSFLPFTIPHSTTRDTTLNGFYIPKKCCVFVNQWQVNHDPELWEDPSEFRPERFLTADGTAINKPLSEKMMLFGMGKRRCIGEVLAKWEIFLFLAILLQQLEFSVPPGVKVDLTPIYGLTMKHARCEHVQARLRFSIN

Cytochrome P450 2C9 = Cytochrome P450 2C9 (Homo sapiens, UniProt P11712); experiment: Inhibition of CYP2C9 in human liver microsomes incubated for 10 mins in presence of NADPH by LC/MS/MS analysis; format: ADME
Cytochrome P450 2C9, sequence (P11712 whole entry): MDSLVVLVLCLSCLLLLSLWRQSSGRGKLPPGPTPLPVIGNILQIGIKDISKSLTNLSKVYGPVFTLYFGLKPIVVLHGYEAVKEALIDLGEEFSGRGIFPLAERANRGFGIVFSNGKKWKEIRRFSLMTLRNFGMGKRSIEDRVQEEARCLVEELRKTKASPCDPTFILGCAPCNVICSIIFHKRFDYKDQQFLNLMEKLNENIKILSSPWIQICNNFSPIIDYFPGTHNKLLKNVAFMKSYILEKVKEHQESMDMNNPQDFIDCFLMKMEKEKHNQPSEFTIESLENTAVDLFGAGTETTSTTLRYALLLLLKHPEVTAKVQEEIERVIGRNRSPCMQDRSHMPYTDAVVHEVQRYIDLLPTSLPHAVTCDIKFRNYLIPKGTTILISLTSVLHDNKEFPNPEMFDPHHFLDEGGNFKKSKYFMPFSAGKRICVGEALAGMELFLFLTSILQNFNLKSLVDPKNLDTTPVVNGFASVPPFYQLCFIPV

Cytochrome P450 2C19 = Cytochrome P450 2C19 (Homo sapiens, UniProt P33261); experiment: Inhibition of CYP2C19 in human liver microsomes incubated for 10 mins in presence of NADPH by LC/MS/MS analysis; format: ADME
Cytochrome P450 2C19, sequence (P33261 whole entry): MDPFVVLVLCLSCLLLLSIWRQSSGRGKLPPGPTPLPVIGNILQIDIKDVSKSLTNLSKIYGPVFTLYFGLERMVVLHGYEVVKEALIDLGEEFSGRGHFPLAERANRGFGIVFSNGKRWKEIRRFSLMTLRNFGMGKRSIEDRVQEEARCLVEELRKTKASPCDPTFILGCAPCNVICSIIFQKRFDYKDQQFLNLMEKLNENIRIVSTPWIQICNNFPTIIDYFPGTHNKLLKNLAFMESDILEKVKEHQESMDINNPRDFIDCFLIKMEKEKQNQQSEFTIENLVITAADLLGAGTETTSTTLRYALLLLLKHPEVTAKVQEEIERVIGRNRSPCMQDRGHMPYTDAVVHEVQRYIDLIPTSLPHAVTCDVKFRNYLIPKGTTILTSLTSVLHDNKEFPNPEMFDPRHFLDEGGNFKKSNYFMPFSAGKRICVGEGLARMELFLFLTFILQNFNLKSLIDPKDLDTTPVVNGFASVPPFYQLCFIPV

Cytochrome P450 2D6 = Cytochrome P450 2D6 (Homo sapiens, UniProt P10635); experiment: Inhibition of CYP2D6 in human liver microsomes incubated for 10 mins in presence of NADPH by LC/MS/MS analysis; format: ADME
Cytochrome P450 2D6, sequence (P10635 whole entry): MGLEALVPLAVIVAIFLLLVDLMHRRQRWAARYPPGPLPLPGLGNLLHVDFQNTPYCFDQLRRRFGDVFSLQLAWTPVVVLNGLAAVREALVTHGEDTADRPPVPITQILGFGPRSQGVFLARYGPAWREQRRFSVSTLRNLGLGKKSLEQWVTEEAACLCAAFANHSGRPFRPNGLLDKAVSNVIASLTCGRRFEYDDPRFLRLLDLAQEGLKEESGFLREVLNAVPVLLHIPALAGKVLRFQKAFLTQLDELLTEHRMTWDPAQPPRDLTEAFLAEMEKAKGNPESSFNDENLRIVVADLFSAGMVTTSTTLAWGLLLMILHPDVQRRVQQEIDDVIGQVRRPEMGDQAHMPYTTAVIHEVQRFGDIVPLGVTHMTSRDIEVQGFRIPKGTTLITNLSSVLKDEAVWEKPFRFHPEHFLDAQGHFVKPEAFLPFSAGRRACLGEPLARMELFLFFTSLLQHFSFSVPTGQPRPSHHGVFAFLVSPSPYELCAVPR

Cytochrome P450 3A4 = Cytochrome P450 3A4 (Homo sapiens, UniProt P08684); experiment: Inhibition of CYP3A4 in human liver microsomes incubated for 10 mins in presence of NADPH by LC/MS/MS analysis; format: ADME
Cytochrome P450 3A4, sequence (P08684 whole entry): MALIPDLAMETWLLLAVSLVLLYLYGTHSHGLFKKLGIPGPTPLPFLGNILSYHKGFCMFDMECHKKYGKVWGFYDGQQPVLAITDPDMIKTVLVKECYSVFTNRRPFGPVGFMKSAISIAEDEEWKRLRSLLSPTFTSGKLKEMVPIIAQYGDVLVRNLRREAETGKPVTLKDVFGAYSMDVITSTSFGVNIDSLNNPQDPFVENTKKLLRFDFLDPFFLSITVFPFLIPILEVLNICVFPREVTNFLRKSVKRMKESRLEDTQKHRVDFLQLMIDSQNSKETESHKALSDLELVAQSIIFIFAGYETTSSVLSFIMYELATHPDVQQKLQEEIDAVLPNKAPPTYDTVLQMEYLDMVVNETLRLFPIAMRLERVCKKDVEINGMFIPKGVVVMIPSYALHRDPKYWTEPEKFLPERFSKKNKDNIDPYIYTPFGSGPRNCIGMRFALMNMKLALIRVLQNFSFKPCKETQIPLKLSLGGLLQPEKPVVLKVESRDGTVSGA

[13] = Initial plasma concentration in Sprague-Dawley rat at 2 mg/kg, iv measured upto 24 hrs by LC/MS/MS analysis; format: ADME, organism-based
[14] = Half life in Sprague-Dawley rat at 2 mg/kg, iv measured upto 24 hrs by LC/MS/MS analysis; format: ADME, organism-based; conditions: in vivo
[15] = Volume of distribution at steady state in Sprague-Dawley rat at 2 mg/kg, iv measured upto 24 hrs by LC/MS/MS analysis; format: ADME, organism-based; conditions: in vivo, read-out: Vdss
[16] = Clearance in Sprague-Dawley rat at 2 mg/kg, iv measured upto 24 hrs by LC/MS/MS analysis; format: ADME, organism-based; conditions: in vivo
[17] = AUC(0 to last) in Sprague-Dawley rat at 2 mg/kg, iv measured upto 24 hrs by LC/MS/MS analysis; format: ADME, organism-based; set-up: route intravenous, dose 2 mg/kg, time <=24; conditions: in vivo
[18] = AUC (0 to infinity) in Sprague-Dawley rat at 2 mg/kg, iv measured upto 24 hrs by LC/MS/MS analysis; format: ADME, organism-based; set-up: route intravenous, dose 2 mg/kg, time <=24; conditions: in vivo

| SMILES | MIC (Candida albicans [1]) [µg/mL] | MIC (Candida albicans [2]) [µg/mL] | MIC (Candida tropicalis) [µg/mL] | MIC (Cryptococcus neoformans) [µg/mL] | MIC (Aspergillus fumigatus) [µg/mL] | MIC (Candida albicans [3]) [µg/mL] | MIC (Candida albicans [4]) [µg/mL] | half-life at 100 µM [5] [min] | microsomal CLint at 100 µM [6] [µL/min/mg] | CLint scaled at 100 µM [7] [mL/min/kg] | remaining at 1 h, 100 µM [8] [%] | remaining at 1 h [9] [%] | remaining at 1 h [10] [%] | Stability [11] [%] | half-life [12] [min] | IC50 (Cytochrome P450 1A2) [µM] | IC50 (Cytochrome P450 2C9) [nM] | IC50 (Cytochrome P450 2C19) [nM] | IC50 (Cytochrome P450 2D6) [µM] | IC50 (Cytochrome P450 3A4) [µM] | also measured |
| --- | --- | --- | --- | --- | --- | --- | --- | --- | --- | --- | --- | --- | --- | --- | --- | --- | --- | --- | --- | --- | --- |
| Clc1ccc(C2(Cn3cncn3)COC(c3cc4ccc(Cl)cc4s3)=N2)cc1 (centres undefined) | < 0.03 | < 0.03 | 0.06 (≈ 0.14 µM) | 0.5 (≈ 1.16 µM) | 2 (≈ 4.66 µM) | 0.5 (≈ 1.16 µM) | > 64 | 69.4 | 20 | 18 | 49.9 | 77.3 | 92.7 | 116.1 | > 289 | 5.67 | 1500 | 168 | 47.6 | 29.1 | – |
| Fc1ccc(C2(Cn3cncn3)COC(c3ccc(-c4ccoc4)cc3)=N2)cc1 (centres undefined) | < 0.03 | < 0.03 | 0.125 (≈ 0.322 µM) | 0.25 (≈ 0.644 µM) | 0.25 (≈ 0.644 µM) | – | – | 18.6 | – | – | – | – | – | – | – | – | – | – | – | – | – |
| Fc1ccc(C2(Cn3cncn3)COC(c3cc4ccc(Cl)cc4s3)=N2)cc1 (centres undefined) | < 0.03 | < 0.03 | < 0.03 | 0.25 (≈ 0.606 µM) | 0.5 (≈ 1.21 µM) | 0.5 (≈ 1.21 µM) | > 64 | 80.5 | 17.2 | 15.5 | 54.6 | 82.6 | 92.6 | 108.2 | > 289 | 4.47 | 2870 | 1040 | 31.3 | 10.1 | C0 at 24 h [13]: 482 ng/mL; half-life [14]: 200 min; Vd [15]: 10.3 L/kg; clearance [16]: 69.4 mL/min/kg; AUC(0-t) at 24 h [17]: 483 ng·h/mL; AUC(0-inf) [18]: 505 ng·h/mL |
| Clc1ccc(C2(Cn3cncn3)COC(c3cc4ccc(Br)cc4s3)=N2)cc1 (centres undefined) | < 0.03 | < 0.03 | 0.06 (≈ 0.127 µM) | 0.25 (≈ 0.528 µM) | 1 (≈ 2.11 µM) | 0.5 (≈ 1.06 µM) | > 64 | – | – | – | – | – | – | – | – | – | – | – | – | – | – |
| OC(Cn1cncn1)(Cn1cncn1)c1ccc(F)cc1F [FLUCONAZOLE] | 0.5 (≈ 1.63 µM) | 1 (≈ 3.27 µM) | 1 (≈ 3.27 µM) | 4 (≈ 13.1 µM) | > 64 | > 64 | > 64 | – | – | – | – | – | 86.7 | 88.2 | > 289 | – | – | – | – | – | – |
